Measurements taken from ChEMBL document CHEMBL5126544, “Recent results from non-basic glycosidase inhibitors: How structural diversity can inform general strategies for improving inhibition potency” (Eur J Med Chem, 2022).

Tests used:
Rattus norvegicus = assay: Hypoglycemic activity in Wistar rat assessed as reduction in postprandial blood glucose level at 10 mg/kg, po administered for 10 mins followed by sucrose challenge and measured after 30 mins post oral sucrose challenge; type: functional; parameters: scale not given: the % may be the effect or the level left; details: time 40 min
[1] = Inhibition of Bacillus stearothermophilus alpha-glucosidase type IV using p-nitrophenyl-alpha-D-glucopyranoside as substrate preincubated for 15 mins followed by substrate addition and measured after 35 mins by microtiter plate reader analysis; parameters: species or system Geobacillus stearothermophilus
[2] = Inhibition of rat intestinal maltase
[3] = Inhibition of alpha-glucosidase (unknown origin) using p-nitrophenyl-alpha-D-glucopyranoside as substrate preincubated for 10 mins followed by substrate addition and measured after 30 mins
[4] = Inhibition of baker's yeast alpha-glucosidase using PNPG as substrate preincubated for 10 mins followed by substrate addition and measured after 30 mins by microplate reader analysis; parameters: species or system Saccharomyces cerevisiae
[5] = Cytotoxicity against MDCK cells; type: toxicity, cell-based, Canis lupus familiaris; details: dog
[6] = Inhibition of alpha-glucosidase (unknown origin) using PNP glycoside as substrate preincubated for 30 mins followed by substrate addition and measured after 60 mins by spectrophotometric analysis
[7] = Inhibition of human alpha-fucosidase
[8] = Inhibition of beta glucosidase (unknown origin); parameters: species or system Homo sapiens
[9] = Inhibition of saccharomyces cerevisiae alpha-glucosidase using p-nitrophenyl-alpha-D-glucopyranoside as substrate preincubated for 15 mins followed by substrate addition and measured after 20 mins by spectrophotometric analysis
[10] = Inhibition of baker's yeast alpha-glucosidase using PNP-G as substrate preincubated for 10 mins followed by substrate addition and measured after 20 mins; parameters: species or system Saccharomyces cerevisiae
[11] = Inhibition of saccharomyces cerevisiae alpha-glucosidase using PNP-G as substrate incubated for 20 mins
[12] = Inhibition of Caldocellum-saccharolyticum […] using 4-nitrophenyl beta-d-glucopyranoside preincubated for 30 to 60 mins followed by substrate addition; parameters: species or system Caldicellulosiruptor saccharolyticus
[13] = Inhibition of saccharomyces cerevisiae alpha-glucosidase using PNPG as substrate preincubated for 2 mins followed by substrate addition for 15 mins by microplate reader analysis
[14] = Inhibition of saccharomyces cerevisiae alpha-glucosidase using pNPG as substrate preincubated for 15 mins followed by substrate addition
Saccharomyces cerevisiae = assay: Inhibition of baker's yeast alpha-glucosidase at 1 uM using p-nitrophenyl-alpha-D-glucopyranoside as substrate preincubated for 30 mins followed by substrate addition and measured after 5 mins relative to control; details: time 35.0 min
[15] = Inhibition of alpha-amyloglucosidase (unknown origin) assessed as reduction in conversion of starch to glucose using starch as substrate preincubated with substrate for 20 mins followed by enzyme addition and measured after 30 mins
Homo sapiens = species: Homo sapiens; assay: Potency index, ratio of acarbose IC50 to test compound IC50 for inhibition of alpha-glucosidase (unknown origin) using PNP glycoside as substrate preincubated for 30 mins followed by substrate addition and measured after 60 mins by spectrophotometric analysis; details: time 90.0 min
[16] = Inhibition of rat intestinal sucrase using sucrose as substrate incubated for 15 mins by spectometric analysis
[17] = Inhibition of rat intestinal maltase using maltose as substrate incubated for 15 mins by spectometric analysis
[18] = Inhibition of baker's yeast alpha-glucosidase using p-nitrophenyl-alpha-glucopyranoside as substrate by spectrophotometric analysis; parameters: species or system Saccharomyces cerevisiae
[19] = Inhibition of Bacillus stearothermophilus alpha-glucosidase using PNP-G as substrate incubated for 20 mins; parameters: species or system Geobacillus stearothermophilus
Alpha amylase = target: T1, Alpha amylase (Homo sapiens, UniProt P0DUB6); assay: Inhibition of human salivary alpha-amylase using starch as substrate preincubated for 5 mins followed by substrate addition for 8 mins and incubated with iodide potassium for another 5 mins; parameters: species or system Saliva
T1 sequence (P0DUB6 whole entry): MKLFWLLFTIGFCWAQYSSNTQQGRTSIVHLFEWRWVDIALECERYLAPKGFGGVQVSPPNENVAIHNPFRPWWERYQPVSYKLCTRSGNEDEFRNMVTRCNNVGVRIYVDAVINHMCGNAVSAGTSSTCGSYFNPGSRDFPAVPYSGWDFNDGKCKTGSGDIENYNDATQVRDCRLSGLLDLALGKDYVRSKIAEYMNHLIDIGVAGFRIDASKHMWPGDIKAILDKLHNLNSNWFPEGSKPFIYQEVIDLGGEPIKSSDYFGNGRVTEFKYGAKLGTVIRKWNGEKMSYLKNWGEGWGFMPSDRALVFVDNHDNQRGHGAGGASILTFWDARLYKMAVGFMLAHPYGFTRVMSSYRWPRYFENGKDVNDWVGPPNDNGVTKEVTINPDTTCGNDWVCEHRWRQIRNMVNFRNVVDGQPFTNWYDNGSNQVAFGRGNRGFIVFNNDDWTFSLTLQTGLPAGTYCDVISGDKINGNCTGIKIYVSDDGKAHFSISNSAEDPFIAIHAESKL

[20] = Inhibition of yeast alpha-glucosidase; parameters: species or system Saccharomyces cerevisiae
[21] = Inhibition of saccharomyces cerevisiae alpha-glucosidase using PNP-G as substrate by spectrophotometric analysis
[22] = Inhibition of recombinant Streptococcus pneumoniae NanB using MUNANA as substrate
[23] = Inhibition of almond beta-glucosidase using PNPG as substrate preincubated for 10 mins followed by substrate addition and measured after 20 mins by spectrophotometric analysis; parameters: species or system Prunus dulcis

Oc1cc(O)cc(/C=C/c2cc(O)c(O)c(O)c2)c1
Activity (Rattus norvegicus): 12.1% | IC50 [1]: 19 µM

O=[N+]([O-])c1ccccc1CO[C@@H](CO)[C@H](O)C[S+]1C[C@@H](O)[C@H](O)[C@H]1CO (single isomer, unassigned)
IC50 [2]: 0.042 µM

O=C1c2c(Cl)c(Cl)c(Cl)c(Cl)c2C(=O)N1CCCc1ccccc1
IC50 [3]: 4.5 µM

Oc1ccc(/C=C/c2cc(O)cc(O)c2)cc1 [RESVERATROL]
IC50 [1]: 24 µM

COc1ccc(O)cc1/C=N/NC(=O)c1ccc(-c2nc3cc(C)c(C)cc3[nH]2)cc1
IC50 [4]: 8 µM

C/C=C/Oc1cc(C=O)ccc1O
IC50 [5]: > 600 µM

CCCCOc1ccc(-c2nc3ccc(Br)cc3[nH]2)cc1
IC50 [6]: 25 µM

CC(=O)NC[C@H]1N[C@@H](C)[C@@H](O)[C@@H](O)[C@@H]1O
Ki [7]: 0.00447 µM

Cc1cc2nc(-c3ccc(C(=O)N/N=C/c4cccc(O)c4O)cc3)[nH]c2cc1C
IC50 [4]: 8 µM

Brc1cccc(-c2nc3ccc(Br)cc3[nH]2)c1
IC50 [6]: 21 µM

O[C@H]1[C@@H](O)Cn2cc(CCc3ccccc3)nc2[C@@H]1O
Ki [8]: 0.004 µM

O=[N+]([O-])c1ccc2nc(Cc3ccc(Cl)cc3Cl)n(Cc3nnc(S)o3)c2c1
IC50 [9]: 27 µM

COc1ccc(-c2nc3ccc(Br)cc3[nH]2)c(O)c1
IC50 [6]: 38 µM

O=[N+]([O-])c1ccc2nc(Cc3ccc(Cl)cc3Cl)n(Cc3nnc(S)n3-c3ccccc3)c2c1
IC50 [9]: 40 µM

COc1ccc(/C=N/NC(=O)c2ccc(-c3nc4cc(C)c(C)cc4[nH]3)cc2)c(O)c1
IC50 [4]: 8 µM

COc1ccc(/C=C/C(=O)O)cc1 [4-METHOXYCINNAMIC ACID]
IC50 [10]: 44 µM

CCCCC1(CCCC)O[C@H]2Cc3c(O)cc(O)cc3O[C@@H]2c2cc(O)c(O)cc21
IC50 [11]: 2.1 µM

COc1cc([C@@H]2c3c(O)cc(O)cc3[C@@H]3[C@H]2CO[C@H]3c2ccc(O)c(O)c2)cc(OC)c1O
Activity (Rattus norvegicus): 10.2% | IC50 [1]: 11 µM

OC[C@@H]1[C@@H](O)[C@H](O)[C@@H](O)c2nc(CCc3ccccc3)cn21
Ki [12]: 0.00011 µM

COC(=O)/C=C/c1ccc(OCC=C(C)C)c(OC)c1
IC50 [13]: 98 µM

COc1ccc(-c2nc3cccc(C)c3[nH]2)c(O)c1
IC50 [14]: 30 µM

C[C@H]1O[C@H](O[C@H]2[C@H](O)[C@@H](O)[C@@H](O[C@H]3[C@H](O)[C@@H](O)C(O)O[C@@H]3CO)O[C@@H]2CO)[C@H](O)[C@@H](O)[C@@H]1N[C@H]1C=C(CO)[C@@H](O)[C@H](O)[C@H]1O (some centres not stated) [ACARBOSE]
inhibition (Saccharomyces cerevisiae): 56.5% | IC50 [6]: 38 µM | IC50 [15]: 15 µM

Oc1ccc(-c2nc3ccc(Br)cc3[nH]2)cc1
IC50 [6]: 8 µM | Ratio IC50 (Homo sapiens): 5

Oc1cc(O)cc(/C=C/c2cc(O)c(O)c3c2[C@H](c2cc(O)cc(O)c2)[C@@H](c2cc(O)c(O)c(O)c2)O3)c1
IC50 [1]: 4.9 µM

Oc1cc(O)c2c(c1)O[C@H](c1ccc(O)c(O)c1)[C@@H](O)C2 [CIANIDANOL]
IC50 [16]: 2490 µM | IC50 [17]: 1350 µM

O=C1c2c(Cl)c(Cl)c(Cl)c(Cl)c2C(=O)N1CCCCCCc1ccccc1
IC50 [3]: 7 µM

Oc1ccccc1-c1nc2ccc(Br)cc2[nH]1
IC50 [6]: 38 µM

O[C@H]1[C@@H](O)Cn2ccnc2[C@@H]1O
Ki [8]: 0.001 µM

O=C1c2c(Cl)c(Cl)c(Cl)c(Cl)c2C(=O)N1CCCCc1ccccc1
IC50 [3]: 2 µM

Cc1cc2nc(-c3ccc(C(=O)N/N=C/c4ccc(O)cc4O)cc3)[nH]c2cc1C
IC50 [4]: 8 µM

C/C(=C\O)[C@@H]1OC(=O)[C@H]2O[C@@]23[C@@]1(C)CC[C@@H]1[C@@]2(CCC(=O)[C@]13C)COC(=O)C[C@@H]2O
IC50 [13]: 102 µM

Cc1cc2nc(-c3ccc(C(=O)N/N=C/c4ccc(O)c(O)c4)cc3)[nH]c2cc1C
IC50 [4]: 12 µM

O=C(NC[C@H]1N[C@H](CO)[C@@H](O)[C@@H]1O)C1Cc2ccccc21 (some centres not stated)
IC50 [18]: 0.15 µM | Ki [18]: 0.053 µM

CCCCCCC1(CCCCCC)O[C@H]2Cc3c(O)cc(O)cc3O[C@@H]2c2cc(O)c(O)cc21
IC50 [19]: 1.1 µM | IC50 [11]: 0.9 µM

Cc1cccc2nc(-c3ccccc3O)[nH]c12
IC50 [14]: 16 µM

O=C1c2c(Cl)c(Cl)c(Cl)c(Cl)c2C(=O)N1Cc1ccccc1
IC50 [3]: 11 µM

O=C1NC(=O)C(Cc2ccc(CNc3nc4ccccc4n3Cc3ccccc3)cc2)S1 (configuration not stated)
IC50 [15]: 5 µM

Cc1cc2nc(-c3ccc(C(=O)N/N=C/c4cc(O)c(O)c(O)c4)cc3)[nH]c2cc1C
IC50 [4]: 8 µM

COC(=O)/C=C/c1ccc(OC/C=C(\C)CO)cc1
IC50 (Alpha amylase): 600 µM

OC[C@@H]1[C@@H](O)[C@H](O)C[S@@+]1C[C@@H](O)[C@@H](O)CO
IC50 [2]: 1.6 µM

C/C=C(\C)C(=O)NCCc1ccc(OCC=C(C)C)cc1
IC50 [13]: 195 µM

Cc1cccc2nc(-c3ccccc3Cl)[nH]c12
IC50 [14]: 5 µM

CC1(C)O[C@H]2Cc3c(O)cc(O)cc3O[C@@H]2c2cc(O)c(O)cc21
IC50 [19]: 0.7 µM | IC50 [11]: 1.2 µM

COc1cc2ccc(=O)oc2cc1O [SCOPOLETIN]
IC50 [13]: 4.6 µM

O=C1NC(=O)C(Cc2ccc(Nc3nc4ccccc4n3Cc3ccccc3)cc2)S1 (configuration not stated)
IC50 [15]: 4 µM

C[C@@H]1N[C@H](CNC(=O)CCc2c[nH]c3ccccc23)[C@@H](O)[C@H](O)[C@@H]1O
Ki [7]: 0.000105 µM

Cc1cccc2nc(-c3ccccc3[N+](=O)[O-])[nH]c12
IC50 [14]: 45 µM

O=c1c(-c2ccc(O)cc2)coc2cc(O)cc(O)c12 [GENISTEIN]
IC50 [20]: 10.4 µM

Cc1cccc2nc(-c3ccc(O)c(O)c3)[nH]c12
IC50 [14]: 25 µM

Oc1cc(O)cc(/C=C/c2ccc(O)c(O)c2)c1 [PICEATANNOL]
IC50 [1]: 23 µM

Cn1c(Nc2ccc(CC3SC(=O)NC3=O)cc2)nc2ccccc21 (configuration not stated)
IC50 [15]: 9 µM

COc1cc([C@@H]2c3c(O)cc(O)cc3[C@@H]3[C@H]2CO[C@H]3c2cc(O)c(O)c(O)c2)cc(OC)c1O
IC50 [1]: 6.5 µM

NNC(=O)Cn1c(Cc2ccc(Cl)cc2Cl)nc2ccc([N+](=O)[O-])cc21
IC50 [9]: 10 µM

Cc1cccc2nc(-c3ccccc3F)[nH]c12
IC50 [14]: 34 µM

O=C1c2c(Cl)c(Cl)c(Cl)c(Cl)c2C(=O)N1CCCCCc1ccccc1
IC50 [3]: 3.5 µM

COc1ccc(-c2oc3cc(O[C@H]4O[C@H](CO)[C@@H](O)[C@H](O)[C@H]4O)c(OC)c(O)c3c(=O)c2O)cc1CCC(C)COC(C)=O (some centres not stated)
IC50 [21]: 66 µM

Cc1cc2nc(-c3ccc(C(=O)N/N=C/c4cc(O)ccc4O)cc3)[nH]c2cc1C
IC50 [4]: 8 µM

OC[C@@H]1[C@@H](O)[C@H](O)[C@@H](O)c2nccn21
Ki [12]: 0.02 µM

Cn1c(NCc2ccc(CC3SC(=O)NC3=O)cc2)nc2ccccc21 (configuration not stated)
IC50 [15]: 9 µM

O=S(=O)(O)CCNCc1cccc(Cl)c1
IC50 [22]: 39 µM

O=C1c2c(Cl)c(Cl)c(Cl)c(Cl)c2C(=O)N1CCc1ccccc1
IC50 [3]: 6 µM

CC(=O)NC[C@H]1N[C@H](CO)[C@@H](O)[C@@H]1O
IC50 [18]: 280 µM

O[C@@H]1[C@H](O)Cn2c(nc3ccccc32)[C@@H]1O
IC50 [23]: 5 µM

COc1ccc(O)c(-c2nc3cccc(C)c3[nH]2)c1
IC50 [14]: 45 µM

CCOC(=O)/C=C/c1ccc(OC)cc1 [4-METHOXY ETHYL CINNAMATE]
IC50 [10]: 50 µM

OC[C@H]1OC(O)[C@H](O)[C@@H](O)[C@@H]1O (some centres not stated) [DEXTROSE]
IC50 [20]: 2.6 µM

Oc1ccc(/C=C/c2cc(O)cc3c2[C@H](c2cc(O)cc(O)c2)[C@@H](c2ccc(O)c(O)c2)O3)cc1 [SCIRPUSIN A]
IC50 [1]: 8.3 µM

Cc1cccc(CNCCS(=O)(=O)O)c1
IC50 [22]: 57 µM
